Results reported in patent US20200179302A1, “USE OF DIPHENOL IN PREPARATION OF MEDICINES FOR PREVENTION AND TREATMENT OF CEREBRAL ISCHEMIA” (XI'AN LIBANG PHARMACEUTICAL CO., LTD, priority 2016, published 2020).

Experiments:
[1] = system: permanent cerebral ischemia model rats; test: Permanent cerebral ischemia (MCAO, suture method) rat model; details: for Fas average gray scale: gray scale inversely proportional to expression; for Relative cerebral infarction volume(%): 40 mg/kg i.v. 30 min before insertion of thread and 12 h after embolism, TTC
[2] = system: rats with cerebral ischemic reperfusion injury; test: Cerebral ischemic reperfusion (MCAO, suture method) rat model; type: in vivo; details: for Relative cerebral infarction volume(%): 40 mg/kg i.v. 30 min before and 12 h after reperfusion, TTC
[3] = 40 mg/kg i.v., brain sections, TUNEL

Row | SMILES | Relative cerebral infarct volume (%) ([1]; edaravone 3 mg/kg, 24 h after embolism) | Fas average gray scale ([1]; edaravone 3 mg/kg, brain sections) | TNF-α content ([1]; edaravone 3 mg/kg, brain tissue homogenate) [ng/mL] | Relative cerebral infarct volume (%) ([2]; edaravone 3 mg/kg, 24 h after reperfusion) | Relative cerebral infarction volume(%) ([1]; 24 h after embolism) | Number of apoptotic cells [1, 3] | Fas average gray scale ([1]; 40 mg/kg i.v., brain sections, immunohistochemistry) | Relative cerebral infarction volume(%) ([2]; 24 h after reperfusion) | Number of apoptotic cells [2, 3] | Fas average gray scale ([2]; 40 mg/kg i.v., brain sections, immunohistochemistry, gray scale inversely proportional to expression)
1 | CC1=NN(c2ccccc2)C(=O)C1 [Edaravone injection, edaravone] | 31.29 ± 4.02 | 138.95 ± 5.50 | 5.53 ± 0.54 | 29.31 ± 3.95 |  |  |  |  |  | 
2 | CC(=O)Oc1c(C(C)C)cc(-c2cc(C(C)C)c(O)c(C(C)C)c2)cc1C(C)C [Example 2, 4′-hydroxy-3,3′,5,5′-tetraisopropylbiphenyl-4-acetate] |  |  |  |  | 24.71 ± 3.76 | 20.41 ± 5.02 | 158.28 ± 6.66 | 18.71 ± 4.69 | 19.14 ± 4.24 | 162.47 ± 3.96
3 | CC(=O)Oc1c(C(C)C)cc(-c2cc(C(C)C)c(OC(C)=O)c(C(C)C)c2)cc1C(C)C [Example 3, 3,3′,5,5′-tetraisopropylbiphenyl-4′-diacetate] |  |  |  |  | 27.92 ± 4.51 |  |  | 23.22 ± 3.12 |  | 
